{
  "source": "paper PMC6358602",
  "about": "“The catalytic activity and secretion of zebrafish RNases are essential for their in vivo function in motor neurons and vasculature” (Scientific Reports, 2019)",
  "target": "T1, human angiogenin (hANG) (Homo sapiens, UniProt P03950)",
  "T1 construct": "gene ANG; [Met−1]-form",
  "T1 sequence (P03950 25-147)": "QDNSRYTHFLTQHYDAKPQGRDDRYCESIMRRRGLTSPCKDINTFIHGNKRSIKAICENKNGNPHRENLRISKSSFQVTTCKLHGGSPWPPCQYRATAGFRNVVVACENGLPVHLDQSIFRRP",
  "experiment": "fluorogenic RNase activity assay with and without NCI-65828 (Fig. 1E)",
  "type": "biochemical",
  "data": [
    {"smiles": "Nc1ccc(/N=N/c2ccc(-c3ccc(O)cc3)cc2)c2ccc(S(=O)(=O)O)cc12", "note": "[NCI-65828, 8-amino-5-(4′-hydroxybiphenyl-4-azo) napathlene-2-sulphate]", "values": [
      {"measurement": "fluorogenic RNase activity assay with and without NCI-65828 (Fig. 1E)", "result": "Enzyme kinetic data for Rnasel and hANG native protein and in the presence of NCI-65828."}
    ]}
  ]
}
